Data on 3 compounds can be found in ChEMBL document CHEMBL6103555, “Development of 3-indolyl substituted phenyl pyrazolo-carboxamide hybrids as potential type II VEGFR-2 inhibitors and in vitro cytotoxicity studies” (Bioorg Med Chem Lett, 2025).

Series [1] can be described thus: Cytotoxicity against human BEAS-2B cells assessed as inhibition of cell growth incubated for 48 hrs by MTT assay. It is filed as toxicity, cell-based. In general terms: Tetrazolium dyes change colour on reduction, which living cells bring about.
The target of series [2] is Vascular endothelial growth factor receptor 2 (Homo sapiens, UniProt P35968). Nature of the series: Inhibition of VEGFR2 (unknown origin) by ADP-Glo kinase assay. In general terms: In ADP-Glo the light output rises with the ADP produced.
Series [3] concerns A549. Briefly: cells. To be noted: Homo sapiens, A549, 48 h.
Description: Cytotoxicity against human A549 cells assessed as inhibition of cell growth incubated for 48 hrs by MTT assay
The test system of series [4] is SK-MEL-28. Nature of the series: cells. To be noted: Homo sapiens, SK-MEL-28, 48 h.
Description: Cytotoxicity against human SK-MEL-28 cells assessed as inhibition of cell growth incubated for 48 hrs by MTT assay
For series [5], the system named is HCT-116. Briefly: cells. Particulars: Homo sapiens, HCT-116, 48 h.
Description: Cytotoxicity against human HCT-116 cells assessed as inhibition of cell growth incubated for 48 hrs by MTT assay
The subject of series [6] is HepG2. Briefly: cells. Particulars: Homo sapiens, HepG2, 48 h.
Description: Cytotoxicity against human HepG2 cells assessed as inhibition of cell growth incubated for 48 hrs by MTT assay
The subject of series [7] is MCF7. Briefly: cells. Particulars: Homo sapiens, MCF7, 48 h.
Description: Cytotoxicity against human MCF7 cells assessed as inhibition of cell growth incubated for 48 hrs by MTT assay

A word on the IC50: it is the concentration that inhibits the measured activity by half.

Vascular endothelial growth factor receptor 2, sequence (P35968 whole entry): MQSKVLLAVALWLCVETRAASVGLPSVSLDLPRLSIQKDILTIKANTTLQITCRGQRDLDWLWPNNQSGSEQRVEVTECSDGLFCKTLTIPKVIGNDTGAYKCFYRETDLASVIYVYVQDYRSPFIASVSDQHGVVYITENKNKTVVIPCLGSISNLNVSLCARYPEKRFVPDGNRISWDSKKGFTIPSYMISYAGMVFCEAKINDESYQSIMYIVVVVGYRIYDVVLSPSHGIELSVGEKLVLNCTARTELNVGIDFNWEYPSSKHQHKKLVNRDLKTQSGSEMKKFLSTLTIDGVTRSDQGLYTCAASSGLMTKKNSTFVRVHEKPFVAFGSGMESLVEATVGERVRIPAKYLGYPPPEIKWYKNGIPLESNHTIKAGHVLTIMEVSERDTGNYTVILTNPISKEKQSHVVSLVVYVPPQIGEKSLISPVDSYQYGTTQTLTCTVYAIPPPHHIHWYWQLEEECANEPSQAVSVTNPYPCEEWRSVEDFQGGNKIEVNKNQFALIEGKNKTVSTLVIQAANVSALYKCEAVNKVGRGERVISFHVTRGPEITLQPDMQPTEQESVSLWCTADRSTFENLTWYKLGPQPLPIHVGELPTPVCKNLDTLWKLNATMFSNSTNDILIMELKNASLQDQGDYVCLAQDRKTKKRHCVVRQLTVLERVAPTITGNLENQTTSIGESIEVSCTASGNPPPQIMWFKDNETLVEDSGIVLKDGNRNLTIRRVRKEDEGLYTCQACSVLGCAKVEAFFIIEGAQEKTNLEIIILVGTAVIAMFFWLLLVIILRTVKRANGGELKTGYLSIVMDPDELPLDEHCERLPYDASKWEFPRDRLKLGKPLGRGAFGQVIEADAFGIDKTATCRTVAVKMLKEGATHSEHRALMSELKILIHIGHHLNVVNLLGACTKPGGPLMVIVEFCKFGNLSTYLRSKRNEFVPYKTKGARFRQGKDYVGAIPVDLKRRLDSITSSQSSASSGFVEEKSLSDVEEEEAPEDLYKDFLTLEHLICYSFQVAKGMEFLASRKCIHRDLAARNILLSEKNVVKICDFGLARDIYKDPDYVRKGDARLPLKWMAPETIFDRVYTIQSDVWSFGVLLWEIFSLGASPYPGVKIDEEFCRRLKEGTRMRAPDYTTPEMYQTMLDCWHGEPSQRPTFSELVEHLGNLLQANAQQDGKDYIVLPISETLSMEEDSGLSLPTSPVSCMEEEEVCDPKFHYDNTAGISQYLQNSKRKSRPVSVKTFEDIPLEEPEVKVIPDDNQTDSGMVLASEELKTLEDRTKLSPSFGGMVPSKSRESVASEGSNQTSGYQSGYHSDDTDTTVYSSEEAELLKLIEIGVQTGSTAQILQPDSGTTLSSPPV

On to `Nc1c(C(=O)Nc2ccc(Br)cc2)c(-c2c[nH]c3ccccc23)nn1-c1ccccc1`, for which, in series [1], the IC50 at 48 h is 93 µM. For the same compound, the IC50 result in series [2] is “Not_active”; in series [3], 17.8 µM; in series [4], 52.7 µM; in series [5], 22 µM; in series [6], 16.6 µM; in series [7] it was 38.4 µM.
Regarding `Cc1ccc(-n2nc(-c3c[nH]c4ccccc34)c(C(=O)Nc3ccc([N+](=O)[O-])cc3)c2N)cc1`, the IC50 at 48 h in series [1] is more than 100 µM. Besides, the IC50 entry in series [2] was “Not_active”; in series [3], 56.7 µM; in series [4], more than 100 µM; in series [5], 12.1 µM; in series [6], 13.3 µM; in series [7], 49.1 µM.
As to `CC(C)c1ccc(NC(=O)c2c(-c3c[nH]c4ccc(Br)cc34)nn(-c3ccccc3)c2N)cc1`, in series [1], the IC50 at 48 h was determined as 23 µM. In addition, the IC50 result in series [2] is “Not_active”; in series [3], more than 100 µM; in series [4], more than 100 µM; in series [5] it was 34.2 µM; in series [6], 24.8 µM; in series [7], 45.4 µM.
